Tested on: Giardia lamblia (WB strain) trophozoites
Assay: Growth of Giardia lamblia trophozoites during 24 hr and 48 hr incubation in vitro (live and dead counts)
Assay type: cell-based
Conditions: for Reduction of live trophozoites compared to control cultures: 48 hr incubation, n=3
Description: Methods for Evaluating the Effect of Ganglioside Enriched Preparation and Ganglioside Fractions on Growth of Giardia lamblia Trophozoites in vitro. The following method was used for preparation of culture medium containing ganglioside. A preparation containing gangliosides was vortexed and sonicated (Sonic 300 Dismembrator™, Artek System Corp.) in 10 ml of TYI-S-33 culture medium, and further diluted by adding 990 ml of culture medium. This stock culture medium containing a known concentration of gangliosides was filtered in succession through Whatman™ No. 1 filter paper, 0.8 μm, 0.45 μm (Milli-Fil-P.F.™ Millipore Corp.), and 0.22 μm (Sterivex-GS™ filters with filling bell, Millipore Corp) filters connected to a peristaltic pump. This stock solution was kept at −30° C. and was diluted on the day of inoculation.
G. lamblia (WB strain) trophozoites were cultured in Diamond's TYI-S-33 (Diamond et al., 1978.). G. lamblia trophozoites (5×10^5) were inoculated in 12.5 cm^2 tissue culture flasks in the total volume of […]. Nutrient stock solution containing gangliosides was diluted to provide a concentration of ganglioside (as N-Acetyl neuraminic acid amounts, NANA) at 0 (control), 0.001, 0.01, 1, 2, and 4 μg/ml. The cultures were incubated for 24 and 48 hr at 37° C. in 5% CO2, and the number of live and dead (no flagellar movement) trophozoites determined using a hemocytometer.
The following method was used for preparation of culture medium containing ganglioside fraction. Total lipids were extracted from the ganglioside enriched preparation using the Folch method (Folch et al., 1957). The ganglioside containing upper phase was transferred and the lower phase was washed once with Folch upper phase solution (chloroform/methanol/water, 3/48/47 by vol.). The combined ganglioside containing fractions were passed through Sep-Pak™ C18 reverse-phase cartridges (Waters Corporation, Milford, Mass., USA), eluted with methanol and chloroform and methanol 2:1 (v/v), and dried completely under vacuum at 23° C. using a rotary evaporator (Williams et al., 1980). Ganglioside (NANA) content was measured as described by Suzuki (1964). Gangliosides were then diluted using the culture medium and filtered as described above.
G. lamblia trophozoites (5×10^5) were incubated for 24 hr and 48 hr with ganglioside fraction at the concentration of 0 (control), 4, 8, 10, 12, 14, 16 and 20 μg/ml in 12.5 cm^2 tissue culture flasks as described above.
In vitro. This study was performed to determine if Fraction A is directly toxic to the parasite. Several dilutions of Fraction A was added to the media at the concentration of 0, 0.001, 0.01, 0, 1, 1, 2, and 4 ug/ml and incubated for 24 hours and 48 hours after inoculation with 500,000 Giardia lamblia trophozoites. […]

Substance: II^(NeuAc)2-LacCer [GD3]
- Reduction of live trophozoites compared to control cultures (10 μg/ml (NANA)): 25%
- Reduction of live trophozoites compared to control cultures (20 μg/ml (NANA)): 55%
- Live trophozoites as a percent of control versus concentration (48 hour incubation, in words (FIG. 12)): decrease as a percent of control in a dose-dependent manner
- Dead trophozoites as a percentage of live trophozoites versus concentration (48 hour incubation, in words (FIG. 13)): increase as a percentage of live trophozoites

Reference: patent publication US6998392B2, “Formulation to treat or prevent parasitic infection” (MTI Meta Tech Inc., priority 2003, dated 2006)
